Laboratory results published in the CheMixHub viscosity set.
± gives the uncertainty stated by the source.

Test: xn = mol fraction of the nth substance listed

c1ccc2c(c1)CCCC2 + c1ccccc1
298.15 K, 101 kPa
Details	viscosity [mPa·s]
x1 = 0.1394	0.719 ± 0.0095
x1 = 0.3016	0.8758 ± 0.011
x1 = 0.493	1.098 ± 0.014
x1 = 0.7222	1.445 ± 0.019

CC(C)CC(C)C + CCCCCCCCCCCC
101 kPa, x1 = 0.5
Details	viscosity [mPa·s]
298 K	0.7489 ± 0.02
318 K	0.5809 ± 0.015

CCOC(=O)CCl + CCCCCCCCCC
viscosity [mPa·s], 101.33 kPa
Details	x1 = 0.0992	x1 = 0.2037	x1 = 0.3031	x1 = 0.4005	x1 = 0.5016	x1 = 0.6027	x1 = 0.7039	x1 = 0.8019	x1 = 0.9008
298.15 K	0.821 ± 0.015	0.825 ± 0.014	0.828 ± 0.015	0.843 ± 0.016	0.869 ± 0.016	0.897 ± 0.017	0.93 ± 0.018	0.969 ± 0.02	1.024 ± 0.019
303.15 K	0.761 ± 0.014	0.766 ± 0.014	0.767 ± 0.014	0.78 ± 0.014	0.801 ± 0.015	0.827 ± 0.016	0.854 ± 0.017	0.885 ± 0.017	0.946 ± 0.018
308.15 K	0.707 ± 0.012	0.713 ± 0.013	0.719 ± 0.012	0.725 ± 0.013	0.742 ± 0.014	0.765 ± 0.014	0.791 ± 0.014	0.829 ± 0.014	0.872 ± 0.016

CCCCOCCO + Cc1cccc(C)c1
viscosity [mPa·s], 101 kPa
Details	298.15 K	308.15 K
x1 = 0.056	0.625 ± 0.011	0.534 ± 0.01
x1 = 0.152	0.711 ± 0.013	0.602 ± 0.011
x1 = 0.2496	0.813 ± 0.014	0.686 ± 0.012
x1 = 0.3506	0.941 ± 0.016	0.786 ± 0.014
x1 = 0.4512	1.095 ± 0.018	0.908 ± 0.016
x1 = 0.5022	1.185 ± 0.019	0.979 ± 0.017
x1 = 0.5529	1.284 ± 0.021	1.056 ± 0.018
x1 = 0.6487	1.501 ± 0.024	1.225 ± 0.02
x1 = 0.7505	1.781 ± 0.028	1.442 ± 0.023
x1 = 0.8511	2.122 ± 0.033	1.704 ± 0.027
x1 = 0.9549	2.56 ± 0.039	2.037 ± 0.032

CNC=O + CC(=O)O
viscosity [mPa·s], 100 kPa
Details	x1 = 0.1097	x1 = 0.183	x1 = 0.2628	x1 = 0.3502	x1 = 0.4802	x1 = 0.5897	x1 = 0.6693	x1 = 0.7549	x1 = 0.8961
303.15 K	1.044	1.086	1.132	1.183	1.259	1.324	1.372	1.426	1.517
308.15 K	0.9723	1.011	1.054	1.1	1.169	1.228	1.272	1.32	1.402
313.15 K	0.9175	0.9534	0.992	1.033	1.095	1.148	1.187	1.229	1.301
318.15 K	0.8728	0.9059	0.9409	0.978	1.033	1.08	1.114	1.151	1.213

CCOCCOCCOCC + ClCCl
298.15 K, 101 kPa
Details	viscosity [mPa·s]
x1 = 0.0052	0.409 ± 0.011
x1 = 0.0103	0.413 ± 0.011
x1 = 0.0277	0.449 ± 0.012
x1 = 0.0559	0.492 ± 0.013
x1 = 0.0751	0.516 ± 0.013
x1 = 0.1056	0.576 ± 0.014
x1 = 0.1326	0.622 ± 0.015
x1 = 0.1807	0.699 ± 0.016
x1 = 0.2427	0.784 ± 0.016
x1 = 0.2846	0.843 ± 0.017
x1 = 0.3028	0.87 ± 0.017
x1 = 0.3207	0.893 ± 0.017
x1 = 0.3629	0.948 ± 0.017
x1 = 0.4227	1.006 ± 0.017
x1 = 0.445	1.031 ± 0.017
x1 = 0.5119	1.096 ± 0.017
x1 = 0.5582	1.131 ± 0.016
x1 = 0.583	1.148 ± 0.016
x1 = 0.6108	1.172 ± 0.015
x1 = 0.6567	1.192 ± 0.015
x1 = 0.7048	1.217 ± 0.014
x1 = 0.7501	1.233 ± 0.013
x1 = 0.803	1.246 ± 0.012
x1 = 0.8457	1.264 ± 0.012
x1 = 0.9124	1.268 ± 0.011
x1 = 0.9488	1.269 ± 0.011
x1 = 0.9709	1.27 ± 0.011

c1ccc2c(c1)CCCC2 + CCCCCCCCO
viscosity [mPa·s], 100 kPa
Details	x1 = 0.0993	x1 = 0.1995	x1 = 0.2994	x1 = 0.3997	x1 = 0.4996	x1 = 0.5996	x1 = 0.6996	x1 = 0.7994	x1 = 0.8994
293.15 K	7.58 ± 0.31	6.37 ± 0.26	5.34 ± 0.22	4.49 ± 0.18	3.8 ± 0.15	3.25 ± 0.13	2.83 ± 0.12	2.53 ± 0.1	2.31 ± 0.09
298.15 K	6.37 ± 0.26	5.38 ± 0.22	4.55 ± 0.19	3.86 ± 0.16	3.3 ± 0.13	2.85 ± 0.12	2.51 ± 0.1	2.25 ± 0.09	2.09 ± 0.09
303.15 K	5.39 ± 0.22	4.59 ± 0.19	3.92 ± 0.16	3.35 ± 0.14	2.89 ± 0.12	2.52 ± 0.1	2.22 ± 0.09	2.01 ± 0.08	1.88 ± 0.08
308.15 K	4.61 ± 0.19	3.95 ± 0.16	3.39 ± 0.14	2.92 ± 0.12	2.54 ± 0.1	2.23 ± 0.09	1.99 ± 0.08	1.81 ± 0.07	1.7 ± 0.07
313.15 K	3.95 ± 0.16	3.42 ± 0.14	2.97 ± 0.12	2.58 ± 0.11	2.26 ± 0.09	2 ± 0.08	1.79 ± 0.07	1.64 ± 0.07	1.55 ± 0.06
318.15 K	3.42 ± 0.14	2.99 ± 0.12	2.61 ± 0.11	2.29 ± 0.09	2.02 ± 0.08	1.8 ± 0.07	1.63 ± 0.07	1.51 ± 0.06	1.43 ± 0.06
323.15 K	2.96 ± 0.12	2.61 ± 0.11	2.3 ± 0.09	2.03 ± 0.08	1.81 ± 0.07	1.62 ± 0.07	1.48 ± 0.06	1.37 ± 0.06	1.32 ± 0.05

O=C(OCc1ccccc1)c1ccccc1 + c1ccccc1
viscosity [mPa·s], 101 kPa
Details	x1 = 0.11	x1 = 0.1886	x1 = 0.27	x1 = 0.4124	x1 = 0.52	x1 = 0.5911	x1 = 0.7827	x1 = 0.8954
298.15 K	0.9057 ± 0.0095	1.196 ± 0.032	1.514 ± 0.016	2.301 ± 0.061	3.073 ± 0.034	3.584 ± 0.095	5.478 ± 0.15	6.883 ± 0.18
313.15 K	0.7205 ± 0.0075	–	1.161 ± 0.012	–	2.18 ± 0.023	–	–	–
